Reference: US11065253B2, “Arylquinazolines” (Merck Patent GmbH, priority 2013, dated 2021)
Like-named read-outs stand apart in the source and are kept apart here.

Tested on: phospho-serine 2056 DNA-PK in HCT116 cells
Assay: DNA-PK phosphorylation at serine 2056 (cellular), ELISA in bleomycin-treated HCT116 cells
Format: cell-based
Details: read-out: IC50 pDNA-PK
In short: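 HCT116, MEM alpha + 10% FCS, 37 °C/10% CO2, seeded o/n. Cpd + 10 μM bleomycin, 6 h. ELISA, chemiluminescence; phospho/total DNA-PKcs ratio, DMSO = blank.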

[1] = Homo sapiens, HCT-116, cellular DNA-PK phosphorylation at serine 2056, HCT116 cells
[2] = cellular DNA-PK phosphorylation at serine 2056, HCT116 cells

Structure (SMILES)	IC50 [1] [nM]	IC50 [2] [nM]
OC(c1cc(-c2ncnc3cc(N4CCOCC4)ccc23)ccc1Cl)c1ncnc2occc12 (stereo not drawn) [Example 416, [2-Chloro-5-(7-morpholin-4-yl-quinazolin-4-yl)-phenyl]furo[2,3-d}-pyrimidin-4-yl-methanol]	500 to 5000	
Cc1cncnc1C(O)c1cc(-c2ncnc3cc(N4CCOCC4)ccc23)ccc1Cl (stereo not drawn) [Example 417, [2-Chloro-5-(7-morpholin-4-yl-quinazolin-4-yl)-phenyl]-(5-methyl-pyrimidin-4-yl)-methanol (Ena 2)]	500 to 5000	
Cc1cncnc1C(O)c1cc(-c2ncnc3cc(N4CCOCC4)ccc23)ccc1Cl (stereo not drawn) [Example 418, [2-Chloro-5-(7-morpholin-4-yl-quinazolin-4-yl)-phenyl]-(5-methyl-pyrimidin-4-yl)-methanol (Ena 1)]		500 to 5000
Cc1cncnc1C(O)c1cc(-c2ncnc3cc(N4CCOCC4)ccc23)ccc1Cl (stereo not drawn) [Example 419, [2-Chloro-5-(7-morpholin-4-yl-quinazolin-4-yl)-phenyl]-(5-methyl-pyrimidin-4-yl)-methanol]		500 to 5000
Cn1cnc2c(C(O)c3ccc(F)c(-c4ncnc5cc(N6CCOCC6)ccc45)c3)ncnc21 (stereo not drawn) [Example 420, [4-Fluoro-3-(7-morpholin-4-yl-quinazolin-4-yl)-phenyl]-(9-methyl-9H-purin-6-yl)-methanol]	5000 to 10000	
Cn1cnc2c(C(O)c3cc(-c4ncnc5cc(N6CCOCC6)ccc45)c(F)cc3F)ncnc21 (stereo not drawn) [Example 421, [2,4-Difluoro-5-(7-morpholin-4-yl-quinazolin-4-yl)-phenyl]-(9-methyl-9H-purin-6-yl)-methanol]	500 to 5000	
COc1nccnc1C(O)c1cc(-c2ncnc3cc(N4CCOCC4)ccc23)ccc1Cl (stereo not drawn) [Example 422, [2-Chloro-5-(7-morpholin-4-yl-quinazolin-4-yl)-phenyl]-(3-methoxy-pyrazin-2-yl)-methanol]		500 to 5000
Cn1cnc2ncnc(C(O)c3cc(-c4ncnc5cc(N6CCOCC6)ccc45)c(F)cc3Cl)c21 (stereo not drawn) [Example 423, [2-Chloro-4-fluoro-5-(7-morpholin-4-yl-quinazolin-4-yl)-phenyl]-(7-methyl-7H-purin-6-yl)-methanol]		5000 to 10000
CN1CCN(c2nccnc2C(O)c2ccc(F)c(-c3ncnc4cc(N5CCOCC5)ccc34)c2)C1=O (stereo not drawn) [Example 424, 1-(3-{[4-Fluoro-3-(7-morpholin-4-yl-quinazolin-4-yl)-phenyl]hydroxy-methyl}pyrazin-2-yl)-3-methyl-imidazolidin-2-one]	10000 to 30000	
O=C1CCCN1c1nccnc1C(O)c1ccc(F)c(-c2ncnc3cc(N4CCOCC4)ccc23)c1 (stereo not drawn) [Example 425, 1-(3-{[4-Fluoro-3-(7-morpholin-4-yl-quinazolin-4-yl)-phenyl]hydroxy-methyl}pyrazin-2-yl)-pyrrolidin-2-one]	10000 to 30000	
Cc1nccnc1C(O)c1cc(-c2ncnc3cc(N4CCOCC4)ccc23)ccc1Cl (stereo not drawn) [Example 426, [2-Chloro-5-(7-morpholin-4-yl-quinazolin-4-yl)-phenyl]-(3-methyl-pyrazin-2-yl)-methanol (Ena 2)]	500 to 5000	
Cc1nccnc1C(O)c1cc(-c2ncnc3cc(N4CCOCC4)ccc23)ccc1Cl (stereo not drawn) [Example 427, [2-Chloro-5-(7-morpholin-4-yl-quinazolin-4-yl)-phenyl]-(3-methyl-pyrazin-2-yl)-methanol (Ena 1)]		500 to 5000
Cc1nccnc1C(O)c1cc(-c2ncnc3cc(N4CCOCC4)ccc23)ccc1Cl (stereo not drawn) [Example 428, [2-Chloro-5-(7-morpholin-4-yl-quinazolin-4-yl)-phenyl]-(3-methyl-pyrazin-2-yl)-methanol]		< 500
OC(c1cc(-c2ncnc3cc(N4CCOCC4)ccc23)c(F)cc1Cl)c1ncnc2sccc12 (stereo not drawn) [Example 429, [2-Chloro-4-fluoro-5-(7-morpholin-4-yl-quinazolin-4-yl)-phenyl]thieno[2,3-d}-pyrimidin-4-yl-methanol]	< 500	
OC(c1cc(-c2ncnc3cc(N4CCOCC4)ccc23)ccc1Cl)c1ncnc2sccc12 (stereo not drawn) [Example 430, [2-Chloro-5-(7-morpholin-4-yl-quinazolin-4-yl)-phenyl]thieno[2,3-d}-pyrimidin-4-yl-methanol]	< 500	
Cn1cnc2ncnc(C(O)c3ccc(F)c(-c4ncnc5cc(N6CCOCC6)ccc45)c3)c21 (stereo not drawn) [Example 433, [4-Fluoro-3-(7-morpholin-4-yl-quinazolin-4-yl)-phenyl]-(7-methyl-7H-purin-6-yl)-methanol]	500 to 5000	
OC(c1ccc(F)c(-c2ncnc3cc(N4CCOCC4)ccc23)c1)c1ncnc2occc12 (stereo not drawn) [Example 434, [4-Fluoro-3-(7-morpholin-4-yl-quinazolin-4-yl)-phenyl]furo[2,3-d}-pyrimidin-4-yl-methanol]		< 500
Cn1c(C(O)c2cc(-c3ncnc4cc(N5CCOCC5)ccc34)c(F)cc2Cl)cccc1=O (stereo not drawn) [Example 435, 6-{[2-Chloro-4-fluoro-5-(7-morpholin-4-yl-quinazolin-4-yl)-phenyl]hydroxy-methyl}-1-methyl-1H-pyridin-2-one]		< 500
Cn1c(C(O)c2cc(-c3ncnc4cc(N5CCOCC5)ccc34)c(F)cc2F)cccc1=O (stereo not drawn) [Example 436, 6-{[2,4-Difluoro-5-(7-morpholin-4-yl-quinazolin-4-yl)-phenyl]hydroxy-methyl}-1-methyl-1H-pyridin-2-one]		500 to 5000
OC(c1ccc(F)c(-c2ncnc3cc(N4CCOCC4)ccc23)c1)c1ncnc2sccc12 (stereo not drawn) [Example 437, [4-Fluoro-3-(7-morpholin-4-yl-quinazolin-4-yl)-phenyl]thieno[2,3-d}-pyrimidin-4-yl-methanol]	< 500	
OC(c1ccc(F)c(-c2ncnc3cc(N4CCOCC4)ccc23)c1)c1ncnc2ccsc12 (stereo not drawn) [Example 438, [4-Fluoro-3-(7-morpholin-4-yl-quinazolin-4-yl)-phenyl]thieno[3,2-d}-pyrimidin-4-yl-methanol]	< 500	
OC(c1cc(-c2ncnc3cc(N4CCOCC4)ccc23)c(F)cc1F)c1ncnc2ccsc12 (stereo not drawn) [Example 439, [2,4-Difluoro-5-(7-morpholin-4-yl-quinazolin-4-yl)-phenyl]thieno[3,2-d}-pyrimidin-4-yl-methanol]	< 500	
OC(c1cc(-c2ncnc3cc(N4CCOCC4)ccc23)c(F)cc1Cl)c1ncnc2ccoc12 (stereo not drawn) [Example 440, [2-Chloro-4-fluoro-5-(7-morpholin-4-yl-quinazolin-4-yl)-phenyl]furo[3,2-d}-pyrimidin-4-yl-methanol]	< 500	
OC(c1cc(-c2ncnc3cc(N4CCOCC4)ccc23)c(F)cc1Cl)c1ncnc2ccoc12 (stereo not drawn) [Example 441, [2-Chloro-4-fluoro-5-(7-morpholin-4-yl-quinazolin-4-yl)-phenyl]furo[3,2-d}-pyrimidin-4-yl-methanol]		< 500
OC(c1ccc(F)c(-c2ncnc3cc(N4CCOCC4)ccc23)c1)c1ncnc2ccoc12 (stereo not drawn) [Example 442, [4-Fluoro-3-(7-morpholin-4-yl-quinazolin-4-yl)-phenyl]furo[3,2-d}-pyrimidin-4-yl-methanol]	< 500	
OC(c1cc(-c2ncnc3cc(N4CCOCC4)ccc23)c(F)cc1F)c1ncnc2ccoc12 (stereo not drawn) [Example 444, [2,4-Difluoro-5-(7-morpholin-4-yl-quinazolin-4-yl)-phenyl]furo[3,2-d}-pyrimidin-4-yl-methanol]	500 to 5000	
OC(c1cc(-c2ncnc3cc(N4CCOCC4)ccc23)c(F)cc1F)c1ncnc2ccoc12 (stereo not drawn) [Example 445, [2,4-Difluoro-5-(7-morpholin-4-yl-quinazolin-4-yl)-phenyl]furo[3,2-d}-pyrimidin-4-yl-methanol]		< 500
